Experimental data taken from patent US20180099931A1 (AbbVie S.à.r.l., priority 2016, published 2018).
Read-outs that look alike come from different tables or passages of the source.

Target: T1, F508delCFTR (Homo sapiens, UniProt P13569, DEL508-508)
T1 construct: expressed in transfected cells; host or cells: CFBE41o- human lung-derived epithelial cells (CFBE4lo-F508delCFTR-HRP), doxycycline-inducible
Experiment: Cell Surface Expression-Horse Radish Peroxidase (CSE-HRP) Assay;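 on Maximum % activity (with co-corrector): co-corrector and positive control are both the same reference corrector at 2 µM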;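 on Maximum % activity (without co-corrector): percent of the 2 µM on-plate positive control corrector response above DMSO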
Assay type: cell-based
Conditions: for Maximum % activity (with co-corrector) / Emax: maximum at any tested concentration, normalized to on-plate positive control; for Emax: read-out: Maximum % activity (without co-corrector)

[1] = CSE-HRP, test compound without co-corrector, read-out: EC50 (without co-corrector)
[2] = CSE-HRP, with co-corrector (2 μM of 3-[(2R,4R)-4-({[1-(2,2-difluoro-1,3-benzodioxol-5-yl)cyclopropyl]carbonyl}amino)-7-methoxy-3,4-dihydro-2H-chromen-2-yl]benzoic acid), read-out: EC50 (with co-corrector)
[3] = CSE-HRP, with co-corrector (2 μM)
[4] = test compound without co-corrector, read-out: EC50 (without co-corrector)
[5] = with co-corrector (2 μM of 3-[(2R,4R)-4-({[1-(2,2-difluoro-1,3-benzodioxol-5-yl)cyclopropyl]carbonyl}amino)-7-methoxy-3,4-dihydro-2H-chromen-2-yl]benzoic acid), read-out: EC50 (with co-corrector)
[6] = test compound without co-corrector
[7] = with co-corrector (2 μM of 3-[(2R,4R)-4-({[1-(2,2-difluoro-1,3-benzodioxol-5-yl)cyclopropyl]carbonyl}amino)-7-methoxy-3,4-dihydro-2H-chromen-2-yl]benzoic acid)

T1 sequence (P13569 with tags, fused parts or gaps DEL508-508): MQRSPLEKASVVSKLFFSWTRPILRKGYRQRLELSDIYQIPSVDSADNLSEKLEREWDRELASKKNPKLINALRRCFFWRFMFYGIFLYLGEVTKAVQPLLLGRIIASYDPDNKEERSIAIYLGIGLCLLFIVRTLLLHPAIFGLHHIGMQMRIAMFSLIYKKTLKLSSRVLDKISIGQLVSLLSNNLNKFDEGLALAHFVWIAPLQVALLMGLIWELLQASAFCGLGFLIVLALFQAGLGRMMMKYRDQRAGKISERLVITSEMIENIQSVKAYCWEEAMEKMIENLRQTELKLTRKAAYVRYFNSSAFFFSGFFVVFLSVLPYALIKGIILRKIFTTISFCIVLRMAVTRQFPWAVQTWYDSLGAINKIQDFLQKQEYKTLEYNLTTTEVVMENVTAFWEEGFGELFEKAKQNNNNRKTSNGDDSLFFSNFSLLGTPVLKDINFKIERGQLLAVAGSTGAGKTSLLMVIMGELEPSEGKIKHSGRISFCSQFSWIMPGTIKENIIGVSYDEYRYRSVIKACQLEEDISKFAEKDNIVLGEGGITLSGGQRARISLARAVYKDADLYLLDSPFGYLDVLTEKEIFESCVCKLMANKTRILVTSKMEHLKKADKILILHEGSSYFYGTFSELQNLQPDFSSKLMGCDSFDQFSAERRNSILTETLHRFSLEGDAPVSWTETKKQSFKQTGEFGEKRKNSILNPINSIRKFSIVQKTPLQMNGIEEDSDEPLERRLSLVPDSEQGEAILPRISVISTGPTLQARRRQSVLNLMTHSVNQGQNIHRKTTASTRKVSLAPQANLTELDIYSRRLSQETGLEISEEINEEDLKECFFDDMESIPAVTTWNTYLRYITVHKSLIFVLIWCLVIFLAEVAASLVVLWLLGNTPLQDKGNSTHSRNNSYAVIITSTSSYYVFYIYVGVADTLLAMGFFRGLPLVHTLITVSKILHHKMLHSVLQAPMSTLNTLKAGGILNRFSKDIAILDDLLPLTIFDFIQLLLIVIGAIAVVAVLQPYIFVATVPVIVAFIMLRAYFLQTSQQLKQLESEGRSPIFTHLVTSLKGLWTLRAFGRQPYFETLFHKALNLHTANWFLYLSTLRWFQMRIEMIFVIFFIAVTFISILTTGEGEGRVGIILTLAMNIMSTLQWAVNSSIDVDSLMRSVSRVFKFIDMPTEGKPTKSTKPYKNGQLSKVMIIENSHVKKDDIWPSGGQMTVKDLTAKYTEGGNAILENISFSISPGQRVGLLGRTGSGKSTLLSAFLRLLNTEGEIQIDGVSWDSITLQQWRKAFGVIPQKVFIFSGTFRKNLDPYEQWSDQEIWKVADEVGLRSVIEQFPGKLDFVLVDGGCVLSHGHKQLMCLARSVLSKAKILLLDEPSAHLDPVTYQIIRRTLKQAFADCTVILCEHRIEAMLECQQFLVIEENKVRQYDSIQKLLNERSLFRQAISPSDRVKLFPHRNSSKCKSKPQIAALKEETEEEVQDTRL

| Compound | EC50 [1] [µM] | EC50 [2] [µM] | Maximum % activity (with co-corrector) [3] | Emax (CSE-HRP, without co-corrector) [%] | EC50 [4] [µM] | EC50 [5] [µM] | Maximum % activity (with co-corrector) (with co-corrector (2 μM)) | Emax (without co-corrector) [%] | Emax [6] [%] | Maximum % activity (with co-corrector) [7] |
| --- | --- | --- | --- | --- | --- | --- | --- | --- | --- | --- |
| CC(C)(C)[C@H]1[C@H](NCc2cc(Cl)ccc2OC(F)F)[C@H](c2ccccc2)N(C(=O)C2CCCCC2)[C@@H]1C(=O)O [II-107] | < 1 | 1 to 10 | +++ (≥350) | < 100 | – | – | – | – | – | – |
| COc1ccc(C(C)(C)C)cc1CN[C@H]1[C@H](C(C)(C)C)[C@@H](C(=O)O)N(C(=O)CN2CCOCC2)[C@H]1c1ccccc1 [II-209] | 1 to 10 | 1 to 10 | +++ (≥350) | 100 to 200 | – | – | – | – | – | – |
| Cc1cc(C(F)(F)F)cc(N[C@@H]2[C@@H](C(C)(C)C)[C@H](C(=O)O)N(C(=O)C3CCCCC3)[C@@H]2c2ccccc2)n1 (racemic) [Example 1, rac-(2R,3R,4R,5R)-3-tert-butyl-1-(cyclohexanecarbonyl)-4-{[6-methyl-4-(trifluoromethyl)pyridin-2-yl]amino}-5-phenylpyrrolidine-2-carboxylic acid] | – | – | – | – | 1 to 10 | 1 to 10 | +++ (≥350) | < 100 | – | – |
| CC(C)(C)[C@H]1[C@H](NCc2ccc(F)c(Oc3ccccc3)c2)[C@H](c2ccccc2)N(C(=O)C2CCCCC2)[C@@H]1C(=O)O [II-130] | 1 to 10 | 1 to 10 | ++ (≥150 and <350) | < 100 | – | – | – | – | – | – |
| COc1ccc(OC(F)F)c(CN[C@@H]2[C@@H](C(C)(C)C)[C@H](C(=O)O)N(C(=O)C3CCCCC3)[C@@H]2c2ccccc2)c1 (racemic) [Example I-14] | – | – | – | – | > 10 | 1 to 10 | ++ (≥150 and <350) | < 100 | – | – |
| CO[C@@H]1CCC[C@@H](C(=O)N2[C@H](c3ccccc3)[C@H](Nc3cc(C(F)(F)F)cc(C)n3)[C@@H](C(C)(C)C)[C@@H]2C(=O)O)C1 (racemic) [Example I-31] | – | – | – | – | 1 to 10 | 1 to 10 | +++ (≥350) | < 100 | – | – |
| COc1ccc(C(F)(F)F)cc1CN[C@@H]1[C@@H](C(C)(C)OC)[C@H](C(=O)O)N(C(=O)C2CCCCC2)[C@@H]1c1ccccc1 (racemic) [Example 6, rac-(2R,3R,4R,5R)-1-(cyclohexanecarbonyl)-3-(2-methoxypropan-2-yl)-4-({[2-methoxy-5-(trifluoromethyl)phenyl]methyl}amino)-5-phenylpyrrolidine-2-carboxylic acid] | – | – | – | – | 1 to 10 | 1 to 10 | +++ (≥350) | > 200 | – | – |
| COc1ccc(C(C)(C)C)cc1CN[C@H]1[C@H](C(C)(C)C)[C@@H](C(=O)O)N(C(=O)Cc2ccc(C)cc2)[C@H]1c1ccccc1 [II-204] | < 1 | < 1 | +++ (≥350) | 100 to 200 | – | – | – | – | – | – |
| CC(C)(C)[C@H]1[C@H](NCc2cc(F)cc(F)c2)[C@H](c2ccccc2)N(C(=O)C2CCCCC2)[C@@H]1C(=O)O [II-115] | > 10 | 1 to 10 | ++ (≥150 and <350) | < 100 | – | – | – | – | – | – |
| COc1ccc(Br)cc1CN[C@H]1[C@H](C(C)(C)C)[C@@H](C(=O)O)N(C(=O)C2CCCCC2)[C@H]1c1ccccc1 [III-118] | – | – | – | – | < 1 | < 1 | +++ (≥350) | – | > 200 | – |
| COc1cc(C(F)(F)F)ccc1CN[C@H]1[C@H](C(C)(C)C)[C@@H](C(=O)O)N(C(=O)[C@@H]2CCCCO2)[C@H]1c1ccccc1 [Example 10, (2S,3S,4S,5S)-3-tert-butyl-4-({[2-methoxy-4-(trifluoromethyl)phenyl]methyl}amino)-1-[(2S)-oxane-2-carbonyl]-5-phenylpyrrolidine-2-carboxylic acid] | – | – | – | – | 1 to 10 | 1 to 10 | +++ (≥350) | > 200 | – | – |
| COc1ccc(C(C)(C)C)cc1CN[C@H]1[C@H](C(C)(C)C)[C@@H](C(=O)O)N(C(=O)CC2(C)CCC(F)(F)C2)[C@H]1c1ccccc1 (stereo partly drawn) [II-220] | 1 to 10 | 1 to 10 | +++ (≥350) | 100 to 200 | – | – | – | – | – | – |
| CCC(C)(C)c1ccc(OC)c(CN[C@H]2[C@H](C(C)(C)C)[C@@H](C(=O)O)N(C(=O)OC(C)C)[C@H]2c2cccnc2N(C)C)c1 [III-232] | – | – | – | – | 1 to 10 | 1 to 10 | +++ (≥350) | – | > 200 | – |
| COc1ccc(C(F)(F)F)cc1CN[C@@H]1[C@@H](C(C)(C)C)[C@H](C(=O)O)N(C(=O)C2CCCCC2)[C@@H]1c1ccccc1N(C)C (racemic) [Example I-22] | – | – | – | – | 1 to 10 | < 1 | +++ (≥350) | > 200 | – | – |
| COc1nc2ccccc2cc1CN[C@H]1[C@H](C(C)(C)C)[C@@H](C(=O)O)N(C(=O)[C@@H]2CCCO2)[C@H]1c1ccccc1C(C)C [Example 100, (2S,3S,4S,5S)-3-tert-butyl-4-{[(2-methoxyquinolin-3-yl)methyl]amino}-1-[(2S)-oxolane-2-carbonyl]-5-[2-(propan-2-yl)phenyl]pyrrolidine-2-carboxylic acid] | – | – | – | – | 1 to 10 | < 1 | +++ (≥350) | > 200 | – | – |
| COc1ccc(C(C)(C)C)cc1CN[C@H]1[C@H](C(C)(C)C)[C@@H](C(=O)O)N(C(=O)C(C)Sc2ccccc2)[C@H]1c1ccccc1 (stereo partly drawn) [II-325] | – | – | – | – | < 1 | < 1 | – | – | > 200 | +++ (≥350) |
| COc1ccc(C(C)(C)C)cc1CN[C@H]1[C@H](C(C)(C)C)[C@@H](C(=O)O)N(C(=O)[C@@H]2CCC[C@@](C)(O)C2)[C@H]1c1ccccc1 [II-533] | – | – | – | – | 1 to 10 | 1 to 10 | – | – | > 200 | +++ (≥350) |
| COc1cnc(C(C)(C)C)cc1CN[C@H]1[C@H](C(C)(C)C)[C@@H](C(=O)O)N(C(=O)C2CCCCC2)[C@H]1c1ccccc1 [Example 48, (2S,3S,4S,5S)-3-tert-butyl-4-{[(2-tert-butyl-5-methoxypyridin-4-yl)methyl]amino}-1-(cyclohexanecarbonyl)-5-phenylpyrrolidine-2-carboxylic acid] | – | – | – | – | 1 to 10 | 1 to 10 | +++ (≥350) | 100 to 200 | – | – |
| COc1ccc(C(C)(C)C)cc1CN[C@H]1[C@H](C(C)(C)C)[C@@H](C(=O)O)N(C(=O)C2(c3ccccc3)COc3ccccc32)[C@H]1c1ccccc1 (stereo partly drawn) [II-370] | – | – | – | – | < 1 | < 1 | – | – | < 100 | +++ (≥350) |
| COc1ccc(C2(C#N)CCC2)cc1CN[C@H]1[C@H](C(C)(C)C)[C@@H](C(=O)O)N(C(=O)C2CCCCC2)[C@H]1c1ccccc1 [Example I-155] | – | – | – | – | 1 to 10 | 1 to 10 | +++ (≥350) | 100 to 200 | – | – |
| COc1ccc(C(C)(C)C)cc1CN[C@H]1[C@H](C(C)(C)C)[C@@H](C(=O)O)N(C(=O)[C@@H]2CCCO2)[C@H]1c1cccnc1N(C)C [Example I-284] | 1 to 10 | 1 to 10 | +++ (≥350) | > 200 | – | – | – | – | – | – |
| COc1cc(Cl)ccc1CN[C@@H]1[C@@H](C(C)(C)C)[C@H](C(=O)O)N(C(=O)OC(C)C)[C@@H]1c1cccnc1N(C)C (racemic) [II-29] | 1 to 10 | 1 to 10 | +++ (≥350) | > 200 | – | – | – | – | – | – |
| CC(C)(C)[C@H]1[C@H](Nc2ccc(C3(C#N)CC3)cn2)[C@H](c2ccccc2)N(C(=O)C2CCCCC2)[C@@H]1C(=O)O [III-159] | – | – | – | – | > 10 | 1 to 10 | ++ (≥150 and <350) | – | < 100 | – |
| COc1cc(C(F)(F)F)ccc1CN[C@H]1[C@H](C(C)(C)C)[C@@H](C(=O)O)N(C(=O)C2OC[C@@H]3CCC[C@H]23)[C@H]1c1ccccc1 (stereo partly drawn) [II-241] | 1 to 10 | 1 to 10 | +++ (≥350) | 100 to 200 | – | – | – | – | – | – |
